From ChEMBL document CHEMBL3885861, “Open TG-GATES”

Organism: Rattus norvegicus
Assay: Open TG-GATES - Regimen: Single
Assay type: toxicity, organism-based, Sprague-Dawley
Design: regimen Single, gender Male, age 6 weeks
Details: in vivo, po, 0 mg/kg, route gavage, dose level Control; for APTT / Bas / Eos / Fbg / Hb / Ht / Lym / MCH / MCHC / MCV / Mono / Neu / PT / Plat / RBC / Ret / WBC: tissue Blood; for KIDNEY_L / KIDNEY_R / KIDNEY_TOTAL: tissue Kidney; for LIVER: tissue Liver; for A/G / ALP / ALT / AST / BUN / CRE / Ca / Cl / DBIL / GLC / IP / K / LDH / Na / PL / RALB / TBIL / TC / TG / TP / gamma-GTP: tissue Plasma

## Nc1c2c(nc3ccccc13)CCCC2 [TACRINE]
3 h
  TERMINAL_BW: 206.5 g
  APTT: 19.7 s
  Bas: 0%
  Eos: 0.8%
  Fbg: 293.2 mg/dL
  Hb: 13 g/dL
  Ht: 37.9%
  Lym: 81.6%
  MCH: 21.2 pg
  MCHC: 34.2%
  MCV: 61.7 fL
  Mono: 2%
  Neu: 15%
  PT: 16.3 s
  Plat: 114.9 x10_4/uL
  RBC: 614.4 x10_4/ul
  Ret: 7.9%
  WBC: 97 x10_2/uL
  KIDNEY_L: 0.9 g
  KIDNEY_R: 0.9 g
  KIDNEY_TOTAL: 1.8 g
  LIVER: 9.3 g
  A/G: 1.2
  ALP: 1417 IU/L
  ALT: 39.6 IU/L
  AST: 77.8 IU/L
  BUN: 13 mg/dL
  CRE: 0.2 mg/dL
  Ca: 10.6 mg/dL
  Cl: 106.8 meq/L
  DBIL: 0.002 mg/dL
  GLC: 189.6 mg/dL
  IP: 7.9 mg/dL
  K: 3.9 meq/L
  LDH: 229 IU/L
  Na: 142.6 meq/L
  PL: 131.4 mg/dL
  RALB: 3 g/dL
  TBIL: 0.018 mg/dL
  TC: 73.2 mg/dL
  TG: 60 mg/dL
  TP: 5.4 g/dL
  gamma-GTP: 1.2 IU/L
6 h
  TERMINAL_BW: 208.7 g
  APTT: 21.4 s
  Bas: 0%
  Eos: 0.8%
  Fbg: 310.4 mg/dL
  Hb: 13.3 g/dL
  Ht: 38.6%
  Lym: 80.2%
  MCH: 21.1 pg
  MCHC: 34.5%
  MCV: 61.1 fL
  Mono: 2.6%
  Neu: 16%
  PT: 16.1 s
  Plat: 115.4 x10_4/uL
  RBC: 632.2 x10_4/ul
  Ret: 7.7%
  WBC: 96.6 x10_2/uL
  KIDNEY_L: 0.9 g
  KIDNEY_R: 0.9 g
  KIDNEY_TOTAL: 1.9 g
  LIVER: 9 g
  A/G: 1.2
  ALP: 1333 IU/L
  ALT: 38.4 IU/L
  AST: 74.6 IU/L
  BUN: 10.8 mg/dL
  CRE: 0.2 mg/dL
  Ca: 10.6 mg/dL
  Cl: 106.8 meq/L
  DBIL: 0 mg/dL
  GLC: 176.6 mg/dL
  IP: 9.2 mg/dL
  K: 4.6 meq/L
  LDH: 252.4 IU/L
  Na: 142 meq/L
  PL: 137.4 mg/dL
  RALB: 2.9 g/dL
  TBIL: 0.016 mg/dL
  TC: 79.4 mg/dL
  TG: 82 mg/dL
  TP: 5.4 g/dL
  gamma-GTP: 1.2 IU/L
9 h
  TERMINAL_BW: 205.8 g
  APTT: 19.8 s
  Bas: 0%
  Eos: 1%
  Fbg: 285.8 mg/dL
  Hb: 13.2 g/dL
  Ht: 38.4%
  Lym: 81.6%
  MCH: 21.1 pg
  MCHC: 34.2%
  MCV: 61.5 fL
  Mono: 2%
  Neu: 15%
  PT: 16 s
  Plat: 120 x10_4/uL
  RBC: 624.8 x10_4/ul
  Ret: 8.6%
  WBC: 84.5 x10_2/uL
  KIDNEY_L: 0.9 g
  KIDNEY_R: 0.9 g
  KIDNEY_TOTAL: 1.8 g
  LIVER: 8.8 g
  A/G: 1.3
  ALP: 1213.6 IU/L
  ALT: 34 IU/L
  AST: 72.6 IU/L
  BUN: 12.6 mg/dL
  CRE: 0.2 mg/dL
  Ca: 10.4 mg/dL
  Cl: 107 meq/L
  DBIL: 0 mg/dL
  GLC: 185.6 mg/dL
  IP: 9.9 mg/dL
  K: 4.2 meq/L
  LDH: 230.8 IU/L
  Na: 142 meq/L
  PL: 139 mg/dL
  RALB: 3 g/dL
  TBIL: 0.022 mg/dL
  TC: 75.8 mg/dL
  TG: 60.8 mg/dL
  TP: 5.4 g/dL
  gamma-GTP: 1 IU/L
24 h
  TERMINAL_BW: 214.7 g
  APTT: 20.5 s
  Bas: 0%
  Eos: 0.8%
  Fbg: 295.8 mg/dL
  Hb: 13.4 g/dL
  Ht: 38.7%
  Lym: 83%
  MCH: 21.5 pg
  MCHC: 34.8%
  MCV: 61.9 fL
  Mono: 3%
  Neu: 12.4%
  PT: 16.3 s
  Plat: 126.5 x10_4/uL
  RBC: 626.2 x10_4/ul
  Ret: 7.3%
  WBC: 106.1 x10_2/uL
  KIDNEY_L: 0.9 g
  KIDNEY_R: 1 g
  KIDNEY_TOTAL: 1.9 g
  LIVER: 10 g
  A/G: 1.3
  ALP: 1572.4 IU/L
  ALT: 43 IU/L
  AST: 74.4 IU/L
  BUN: 18.8 mg/dL
  CRE: 0.2 mg/dL
  Ca: 10.8 mg/dL
  Cl: 106.8 meq/L
  DBIL: 0.008 mg/dL
  GLC: 191.6 mg/dL
  IP: 7.3 mg/dL
  K: 4.6 meq/L
  LDH: 300.2 IU/L
  Na: 141.4 meq/L
  PL: 154.2 mg/dL
  RALB: 3.1 g/dL
  TBIL: 0.032 mg/dL
  TC: 79.8 mg/dL
  TG: 103 mg/dL
  TP: 5.4 g/dL
  gamma-GTP: 1 IU/L
